≈ marks a conversion by molar mass, not a printed value.
Experiments:
Pseudomonas aeruginosa = test: Antibiofilm activity (crystal violet, A490); assay type: cell-based; settings: biofilm, read-out: MBEC
Description: (§1) The effect of the chalcones on the biofilm formation was evaluated after the determination of the MICs. Briefly, the plates were emptied, washed to remove the nonadherent cells, fixed with methanol, and stained with crystal violet. The antibiofilm activity was determined after adding 33% acetic acid solution by measuring the absorbance at 490 nm, and the results are listed in Table 6.
(§2) The azulene-chalcone derivatives were tested for their ability to affect biofilm formation since 80% of the world’s microbial biomass is found in the biofilm state. The most efficient compound was again chalcone 6 with MBEC of 0.156–0.625 mg/mL (Table 6).

Staphylococcus aureus = test: Antibiofilm activity (crystal violet, A490); assay type: cell-based; settings: biofilm, read-out: MBEC
Description: as §1, §2

Candida parapsilosis = test: Antibiofilm activity (crystal violet, A490); assay type: cell-based; settings: Lodderomyces parapsilosis, biofilm, read-out: MBEC
Description: as §1, §2

Escherichia coli = test: Antibiofilm activity (crystal violet, A490); assay type: cell-based; settings: biofilm, read-out: MBEC
Description: as §1, §2

[1] = system: Candida parapsilosis ATCC 22019; test: MIC (antifungal), binary serial dilution in 96-well plates; assay type: cell-based; settings: Lodderomyces parapsilosis, ATCC22019; Candida parapsilosis ATCC 22019, 24 h at 37 °C
Description: (§3) The antimicrobial activity of all compounds was assessed on Gram-positive bacteria (Staphylococcus aureus ATCC 25923), Gram-negative bacteria (Escherichia coli ATCC 25922, Pseudomonas aeruginosa ATCC 27853), and fungi (Candida parapsilosis ATCC 22019) using quantitative binary serial dilution method in 96-well plates. The negative control was represented by wells with culture medium, while positive control was the microbial strain in broth. Briefly, binary serial dilutions of the compounds performed in 100 μL of broth were seeded with microbial inoculum of 10^6 colony forming units (CFU)/mL and incubated for 24 h at 37 °C. […] Due to the fact that the obtained compounds were colored, after the incubation of the 96-well plates, from each well, 10 µL were seeded on agar plates (Plate Count Agar) to determine the inhibitory concentration. The same value of the inhibitory concentration was obtained in repeated experiments.
(§4) The antibacterial effect of the azulene moiety introduced in the chalcone structure was investigated against Gram-positive (Staphylococcus aureus ATCC 25923) and Gram-negative (Escherichia coli ATCC 25922, Pseudomonas aeruginosa ATCC 27853) bacteria, while the antifungal effect was tested against Candida parapsilosis ATCC 22019. To our knowledge, the antibacterial activity of azulene-containing chalcone compounds has not been reported previously; moreover, this is the first investigation of the biological properties of azulene-containing chalcones in general. The results expressed in terms of minimum inhibitory concentration (MIC) were determined by in vitro screening of the antimicrobial properties using the broth microdilution method and are summarized in Table 5.
We further tested the azulene-containing chalcone compounds for antifungal activity against Candida parapsilosis ATCC 22019.

[2] = system: Pseudomonas aeruginosa ATCC 27853; test: MIC, binary serial dilution in 96-well plates; assay type: cell-based; settings: ATCC27853; Pseudomonas aeruginosa ATCC 27853, 24 h at 37 °C
Description: as §3, §4

[3] = system: Staphylococcus aureus ATCC 25923; test: MIC, binary serial dilution in 96-well plates; assay type: cell-based; settings: for MIC: ATCC25923, Staphylococcus aureus ATCC 25923, 24 h at 37 °C; for Aexp: Aexp = 0.1 + log (k/MIC), k = 1.250, compounds synthesized herein
Description: as §3, §4

[4] = system: Escherichia coli ATCC 25922; test: MIC, binary serial dilution in 96-well plates; assay type: cell-based; settings: ATCC25922; Escherichia coli ATCC 25922, 24 h at 37 °C
Description: as §3, §4

[5] = Cell viability assay (CellTiter Glo); assay type: cell-based; settings: human; HEp-2 cells, 48 h, CellTiter Glo; read-out: IC50 (50% cytotoxic concentration)
Description: To assess the toxicity of the azulene-containing chalcones, the adherent cell line HEp-2 (American Cell Type Collection [ATCC] CCL-23^TM) was used.
In order to estimate the cytotoxicity of the compounds, HEp-2 cells (American Cell Type Collection (ATCC) CCL-23) were exposed to the azulene-containing chalcones at concentrations of 200, 100, 50, and 25 μg/mL and evaluated using CellTiter Glo kit (Promega, Madison, WI, USA) assay. The results presented in Figure 3 are expressed as viability percentages versus control.

S. aureus [6] = test: Known antibacterial activity of literature chalcones used for QSAR; assay type: cell-based, Staphylococcus aureus; settings: Aexp = 0.1 + log (k/MIC), k = 1.250
Description: The QSAR studies were carried out on 48 chalcones, including 10 synthesized azulenyl-chalcones, in order to identify the physicochemical parameter responsible for their antimicrobial activity against Staphylococcus aureus. The geometry optimization of the molecules was completed using PCModel and MOPAC programs. The descriptors were calculated using MOPAC, PRECLAV, and DRAGON software, and the descriptors and QSAR equations were selected using the PRECLAV algorithm. The best QSAR model was chosen based on the statistical parameters such as the square of the correlation coefficient (r^2), the Fischer’s value of significance (F), and the standard error of estimate(s).
Quantitative structure−activity relationship (QSAR) studies involving 38 chalcone derivatives (Table 7) with known antibacterial activity against S. aureus were developed. These studies were based upon observed activity and molecular descriptors. […] Two QSAR studies were performed: (i) one in which all 48 molecules were included in the calibration set and (ii) another with an external validation test. For the latter, 10 molecules were randomly chosen to be part of the validation test, whereas the rest were part of the calibration set. The result of the external validation depends strongly, among other things, on the procedures for the extraction of the calibration and validation sets from the initial database.

S. aureus [7] = system: S. aureus; parameters: method as in PMID 15801857, PMID 19275612, PMID 15142563; settings: literature chalcones Nr. Crtl. 1-38 of Table 7; cited from earlier work

Row | SMILES | Aexp (S. aureus [6]) | MIC (S. aureus [7]) | also measured
1 | O=C(/C=C/c1ccc2cccccc1-2)c1ccc(O)cc1 [Compound 2, (E)-3-(Azulen-1-yl)-1-(4-hydroxyphenyl)prop-2-en-1-one] | – | – | minimal effective concentration (Pseudomonas aeruginosa): 625 µg/mL; minimal effective concentration (Staphylococcus aureus): 1250 µg/mL; minimal effective concentration (Candida parapsilosis): 312 µg/mL; minimal effective concentration (Escherichia coli): 625 µg/mL; MIC [1]: 312 µg/mL (≈ 1140 µM); MIC [2]: 625 µg/mL (≈ 2280 µM); MIC [3]: 1250 µg/mL (≈ 4560 µM); Aexp [3]: 0.100; MIC [4]: 625 µg/mL (≈ 2280 µM); IC50 at 48 h [5]: 97.5 µg/mL (≈ 355 µM)
2 | Nc1ccc(C(=O)/C=C/c2ccc3cccccc2-3)cc1 [Compound 3, (E)-1-(4-Aminophenyl)-3-(azulen-1-yl)prop-2-en-1-one] | – | – | minimal effective concentration (Pseudomonas aeruginosa): 1250 µg/mL; minimal effective concentration (Staphylococcus aureus): 2500 µg/mL; minimal effective concentration (Candida parapsilosis): 625 µg/mL; minimal effective concentration (Escherichia coli): 625 µg/mL; MIC [1]: 312 µg/mL (≈ 1140 µM); MIC [2]: 625 µg/mL (≈ 2290 µM); MIC [3]: 1250 µg/mL (≈ 4570 µM); Aexp [3]: 0.100; MIC [4]: 625 µg/mL (≈ 2290 µM); IC50 at 48 h [5]: 114 µg/mL (≈ 415 µM)
3 | COc1cc(/C=C/C(=O)c2ccccc2)ccc1O [Nr. Crtl. 1] | 0.498 | 500 µg/mL (≈ 1970 µM) | –
4 | COc1cc(/C=C/C(=O)c2ccc(Cl)cc2)cc(OC)c1O [Nr. Crtl. 2] | 0.498 | 500 µg/mL (≈ 1570 µM) | –
5 | O=C(/C=C/c1ccc(Cl)cc1Cl)c1ccc(O)c(F)c1 [Nr. Crtl. 3] | 0.720 | 300 µg/mL (≈ 964 µM) | –
6 | O=C(O)c1ccc(C(=O)/C=C/c2ccccc2C(F)(F)F)cc1 [Nr. Crtl. 4] | 0.720 | 300 µg/mL (≈ 937 µM) | –
7 | O=C(O)c1ccc(C(=O)/C=C/c2cccc([N+](=O)[O-])c2)cc1 [Nr. Crtl. 5] | 0.720 | 300 µg/mL (≈ 1010 µM) | –
8 | O=C(/C=C/c1cccc(O)c1)c1ccccc1 [Nr. Crtl. 6] | 0.799 | 250 µg/mL (≈ 1110 µM) | –
9 | COc1ccc(/C=C/C(=O)c2ccccc2)cc1O [Nr. Crtl. 7] | 0.799 | 250 µg/mL (≈ 983 µM) | –
10 | COc1cccc(/C=C/C(=O)c2ccc(Cl)cc2)c1O [Nr. Crtl. 8] | 0.799 | 250 µg/mL (≈ 866 µM) | –
11 | COc1cc(/C=C/C(=O)c2ccc(Cl)cc2)ccc1O [Nr. Crtl. 9] | 0.799 | 250 µg/mL (≈ 866 µM) | –
12 | O=C(/C=C/c1ccc(Cl)cc1Cl)c1cc(F)c(O)c(F)c1 [Nr. Crtl. 10] | 1.021 | 150 µg/mL (≈ 456 µM) | –
13 | O=C(O)c1ccc(C(=O)/C=C/c2ccc(C(F)(F)F)cc2)cc1 [Nr. Crtl. 11] | 1.021 | 150 µg/mL (≈ 468 µM) | –
14 | O=C(O)c1ccc(C(=O)/C=C/c2ccc(Cl)cc2)cc1 [Nr. Crtl. 12] | 1.021 | 150 µg/mL (≈ 523 µM) | –
15 | O=C(O)c1ccc(C(=O)/C=C/c2ccccc2Cl)cc1 [Nr. Crtl. 13] | 1.021 | 150 µg/mL (≈ 523 µM) | –
16 | O=C(O)c1ccc(C(=O)/C=C/c2ccccc2Br)cc1 [Nr. Crtl. 14] | 1.021 | 150 µg/mL (≈ 453 µM) | –
17 | O=C(O)c1ccc(C(=O)/C=C/c2cc(F)cc(F)c2)cc1 [Nr. Crtl. 15] | 1.021 | 150 µg/mL (≈ 520 µM) | –
18 | O=C(/C=C/c1ccc(O)cc1)c1ccccc1 [Nr. Crtl. 16] | 1.100 | 125 µg/mL (≈ 557 µM) | –
19 | O=C(/C=C/c1ccc(O)c(O)c1)c1ccccc1 [Nr. Crtl. 17] | 1.100 | 125 µg/mL (≈ 520 µM) | –
20 | COc1cccc(/C=C/C(=O)c2ccccc2)c1O [Nr. Crtl. 18] | 1.100 | 125 µg/mL (≈ 492 µM) | –

Row | SMILES | Aexp (S. aureus [6]) | MIC (S. aureus [7]) | also measured
21 | O=C(/C=C/c1ccccc1O)c1ccc(Cl)cc1 [Nr. Crtl. 19] | 1.100 | 125 µg/mL (≈ 483 µM) | –
22 | O=C(/C=C/c1cccc(O)c1)c1ccc(Cl)cc1 [Nr. Crtl. 20] | 1.100 | 125 µg/mL (≈ 483 µM) | –
23 | O=C(/C=C/c1ccc(O)cc1)c1ccc(Cl)cc1 [Nr. Crtl. 21] | 1.100 | 125 µg/mL (≈ 483 µM) | –
24 | O=C(/C=C/c1ccc(O)c(O)c1)c1ccc(Cl)cc1 [Nr. Crtl. 22] | 1.100 | 125 µg/mL (≈ 455 µM) | –
25 | O=C(O)c1ccc(C(=O)/C=C/c2cccc(Cl)c2)cc1 [Nr. Crtl. 23] | 1.322 | 75 µg/mL (≈ 262 µM) | –
26 | O=C(O)c1ccc(C(=O)/C=C/c2cccc(Br)c2)cc1 [Nr. Crtl. 24] | 1.322 | 75 µg/mL (≈ 226 µM) | –
27 | Cc1cc(C)cc(/C=C/C(=O)c2ccc(C(=O)O)cc2)c1 [Nr. Crtl. 25] | 1.322 | 75 µg/mL (≈ 268 µM) | –
28 | COc1ccc(/C=C/C(=O)c2ccc(Cl)cc2)cc1O [Nr. Crtl. 26] | 1.401 | 62.5 µg/mL (≈ 216 µM) | –
29 | O=C(/C=C/c1ccccc1O)c1ccccc1 [Nr. Crtl. 27] | 1.401 | 62.5 µg/mL (≈ 279 µM) | –
30 | O=C(O)c1ccc(C(=O)/C=C/c2cccc(C(F)(F)F)c2)cc1 [Nr. Crtl. 28] | 1.595 | 40 µg/mL (≈ 125 µM) | –
31 | O=C(O)c1ccc(C(=O)/C=C/c2cc(Cl)cc(Cl)c2)cc1 [Nr. Crtl. 29] | 1.595 | 40 µg/mL (≈ 125 µM) | –
32 | O=C(O)c1ccc(C(=O)/C=C/c2ccc(Cl)cc2Cl)cc1 [Nr. Crtl. 30] | 1.595 | 40 µg/mL (≈ 125 µM) | –
33 | O=C(/C=C/c1ccc(Cl)cc1Cl)c1ccc(O)cc1 [Nr. Crtl. 31] | 1.896 | 20 µg/mL (≈ 68.2 µM) | –
34 | O=C(/C=C/c1ccc(Cl)cc1Cl)c1ccc(O)cc1F [Nr. Crtl. 32] | 1.896 | 20 µg/mL (≈ 64.3 µM) | –
35 | O=C(/C=C/c1cccc(Br)c1)c1ccc(O)cc1 [Nr. Crtl. 33] | 1.896 | 20 µg/mL (≈ 66 µM) | –
36 | O=C(/C=C/c1cccc(Cl)c1Cl)c1ccc(O)cc1 [Nr. Crtl. 34] | 2.021 | 15 µg/mL (≈ 51.2 µM) | –
37 | O=C(/C=C/c1c(Cl)ccc(Cl)c1Cl)c1ccc(O)cc1 [Nr. Crtl. 35] | 2.197 | 10 µg/mL (≈ 30.5 µM) | –
38 | O=C(/C=C/c1cc(C(F)(F)F)cc(C(F)(F)F)c1)c1ccc(O)cc1 [Nr. Crtl. 36] | 2.720 | 3 µg/mL (≈ 8.33 µM) | –
39 | O=C(O)c1ccc(C(=O)/C=C/c2cc(C(F)(F)F)cc(C(F)(F)F)c2)cc1 [Nr. Crtl. 37] | 2.896 | 2 µg/mL (≈ 5.15 µM) | –
40 | O=C(O)c1ccc(C(=O)/C=C/c2cc(Br)cc(Br)c2)cc1 [Nr. Crtl. 38] | 2.896 | 2 µg/mL (≈ 4.88 µM) | –

Source: paper PMC8911025, “Design, Synthesis, and Biological Evaluation of New Azulene-Containing Chalcones” (Materials, 2022)
